From article PMC7256776, “Pharmacokinetic Comparisons of Eight Active Components from Raw Farfarae Flos and Honey-Processed Farfarae Flos after Oral Administration in Rats by UHPLC-MS/MS Approaches” (Journal of Analytical Methods in Chemistry, 2020)
Where two headings read alike, the source gives them in different places.

What was measured:
[1] = format: in vitro ADME; conditions: rat plasma, IS 100 ng/mL, n = 3
Experimental: Short-term stability was calculated by keeping the QC samples at room temperature for 4 hours. Long-term stability was investigated by storing the same QC samples at −20°C in a refrigerator for 30 days. The freeze and thaw stability was determined by analyzing the same QC samples after 3 consecutive freeze-thaw (−20 to 20°C) cycles. The postpreparative stability was evaluated by keeping the QC samples at autosampler for 24 hours.

[2] = Pharmacokinetic study in rats after oral administration of R-FF or H-FF extract (UHPLC-MS/MS of serum); format: in vivo, SD rats; conditions: for eliminate rate (judged from t1/2 and MRT values): R-FF group; for C max / MRT0–t / T max / t 1/2 / AUC(0-inf) / AUC(0-t) / Cmax / Tmax / half-life / MRT last: mean ± SD; for C max / MRT0–t / T max / t 1/2 / AUC(0-inf) / AUC(0-t) / Cmax / Tmax / half-life: n = 6; for change of MRT0–t in H-FF group compared to R-FF group / change of T1/2 in H-FF group compared to R-FF group: oral, H-FF vs R-FF; for double peak phenomena in serum concentration-time curve: both R-FF and H-FF, Figure 3; for AUC(0-inf) / AUC(0-t) / Cmax / Tmax / half-life / MRT last: male, SD, rat, serum, po, 140 g/kg; for MRT last: n = 6, read-out: MRT0–t
Experimental: MS analysis was performed on a TSQ Quantis™ triple quadrupole mass spectrometer (Thermo Scientific™, Vanquish™, (Waltham, MA, USA)) equipped with an autosampler. Chromatographic separation was performed on a Thermo Hypersil GOLD C18 column (100 mm × 2.1 mm, 1.9 µm particles). The column temperature was maintained at 30°C. Through the Thermo Scientific™, TraceFinder™ software was acquired and processed. The mobile phase was composed of acetonitrile (A) and water (both containing 0.3% formic acid) (B) with a gradient elution program (0–5 min:10–19% acetonitrile, 5–8 min:19–25% acetonitrile, 8–28 min:25%–100% acetonitrile, 28–32 min: 100%–10%, and 32–34 min: 10%–10%). The system was re-equilibrated in the initial mobile phase 4.0 min before the next injection. The flow rate was set at 0.3 mL/min, and the injection volume was set as 2 μL.
The analytes were detected on a TSQ Quantis triple quadrupole mass spectrometer by selected reaction monitoring (SRM) equipped with a heated electrospray ionization source operated in negative ion modes. The parameters were set as follows: the sheath gas and the aux gas were set at 30 Arb and 10 Arb, respectively; the ion transfer tube temperature was maintained at 325°C; and the vaporizer temperature was set to 350°C.
5 μL of IS solution containing chloramphenicol 100 ng/ml and 795 μL of acetonitrile were added to a 100 μL drug serum sample for sedimentation of proteins. Subsequently, the 1.5 mL centrifuge tube containing mixture was vortexed for 5 min. After that, the mixture was centrifuged at 12,000 rpm for 20 min at 4°C. Finally, the supernatant fluid was removed and evaporated to dryness under a stream of nitrogen at 35°C. The dried residue was redissolved by 100 μL 50% methanol aqueous solution. And the supernatant prepared above was filtered through 0.22 μm membranes transferred to vials by the UHPLC-MS/MS system for data analysis.
12 adult male SD rats (weighing 250∼300 g) were used in pharmacokinetics experiments and randomly assigned to two groups: R-FF group and H-FF group. Before being administered R-FF or H-FF extract, all the rats fasted but with free access to water for 12 h. The R-FF or H-FF extract was orally administered to the rats (140 g/kg body weight). Aliquots of 0.3 ml blood samples were collected in 1.5 ml heparin lithium-anticoagulant tubes at (0.083, 0.166, 0.333, 0.5, 1, 2, 4, 6, 8, 12, 24, 36, and 48 h) via the postorbital venous plexus veins from each rat after oral administration. The blood sample was immediately centrifuged at 3500 rpm for 5 min, and the supernatant 100 μL serum was transferred into a new centrifuge tube and stored at −80°C until analysis.

SMILES | eliminate rate (judged from t1/2 and MRT values) [2] | change of MRT0–t in H-FF group compared to R-FF group [2] | double peak phenomena in serum concentration-time curve [2] | AUC(0-inf) ([2]; oral H-FF extract 140 g/kg) [µg·h/mL] | AUC(0-t) ([2]; oral H-FF extract 140 g/kg) [µg·h/mL] | Cmax ([2]; oral H-FF extract 140 g/kg) [ng/mL] | Tmax ([2]; oral H-FF extract 140 g/kg) [h] | half-life ([2]; oral H-FF extract 140 g/kg) [h] | MRT last ([2]; oral H-FF extract 140 g/kg) [h] | AUC(0-inf) ([2]; oral R-FF extract 140 g/kg) [µg·h/mL] | AUC(0-t) ([2]; oral R-FF extract 140 g/kg) [µg·h/mL] | Tmax ([2]; oral R-FF extract 140 g/kg) [h] | half-life ([2]; oral R-FF extract 140 g/kg) [h] | MRT last ([2]; oral R-FF extract 140 g/kg) [h] | change of T1/2 in H-FF group compared to R-FF group [2] | Cmax ([2]; oral R-FF extract 140 g/kg) [ng/mL] | other results
O=C(N[C@H](CO)[C@H](O)c1ccc([N+](=O)[O-])cc1)C(Cl)Cl [Chloramphenicol (IS), chloramphenicol] |  |  |  |  |  |  |  |  |  |  |  |  |  |  |  |  | Freeze-thaw stability (RE%) ([1]; 3 freeze-thaw cycles (−20 to 20°C)): −4.77%; Short-term stability (RE%) ([1]; room temperature 4 hours): 0.74%; Long-term stability (RE%) ([1]; −20°C 30 days): −2.22%
O=C(C=Cc1ccc(O)c(O)c1)OC1CC(O)(C(=O)O)CC(O)C1OC(=O)C=Cc1ccc(O)c(O)c1 (stereo not drawn) [Isochlorogenic acid C, isochlorogenic acid C] | slow eliminate rate | increased |  |  |  |  |  |  |  |  |  |  |  |  |  |  | C max ([2]; oral H-FF extract 140 g/kg): 28183.80 ± 3739.61 ng/mL; MRT0–t ([2]; oral H-FF extract 140 g/kg): 16.42 ± 0.84 h; T max ([2]; oral H-FF extract 140 g/kg): 0.33 ± 0.00 h; t 1/2 ([2]; oral H-FF extract 140 g/kg): 22.14 ± 9.73 h; C max ([2]; oral R-FF extract 140 g/kg): 12916.78 ± 3117.99 ng/mL; MRT0–t ([2]; oral R-FF extract 140 g/kg): 14.32 ± 1.56 h; T max ([2]; oral R-FF extract 140 g/kg): 0.33 ± 0.00 h; t 1/2 ([2]; oral R-FF extract 140 g/kg): 20.36 ± 5.22 h
O=C(C=Cc1ccc(O)c(O)c1)OC1CC(O)(C(=O)O)CC(O)C1O (stereo not drawn) [Neochlorogenic acid, neochlorogenic acid] | slow eliminate rate |  | obvious double peak phenomena | 117 ± 15.9 | 95.7 ± 6.56 | 24700 ± 3220 | 0.33 | 14.7 ± 3.88 | 10.9 ± 0.44 | 87 ± 8.34 | 56 ± 4.22 | 0.33 | 30.1 ± 6.85 | 12.5 ± 1.19 | a little shorter |  | 
O=C(/C=C/c1ccc(O)c(O)c1)O[C@H]1[C@H](O)C[C@](O)(C(=O)O)C[C@H]1O [Cryptochlorogenic acid, cryptochlorogenic acid] | slow eliminate rate |  |  | 401 ± 22 | 351 ± 16.7 | 97300 ± 1150 | 0.33 | 17.6 ± 1.57 | 13.2 ± 0.39 | 242 ± 49.1 | 170 ± 5.98 | 0.33 | 21.9 ± 9.25 | 11.2 ± 0.53 | a little shorter | 67800 ± 3100 | 
O=C(/C=C/c1ccc(O)c(O)c1)O[C@@H]1C[C@](O)(C(=O)O)C[C@@H](O)[C@H]1O [Chlorogenic acid, chlorogenic acid] | slow eliminate rate |  |  | 428 ± 41.6 | 281 ± 10.8 | 80400 ± 6350 | 0.33 | 32.9 ± 4.87 | 11.1 ± 0.16 | 236 ± 75.6 | 167 ± 21.8 | 0.33 | 33.4 ± 3.36 | 10.6 ± 0.82 | a little shorter | 75600 ± 3060 | 
O=C(C=Cc1ccc(O)c(O)c1)OC1CC(O)(C(=O)O)CC(O)C1OC(=O)C=Cc1ccc(O)c(O)c1 (stereo not drawn) [Isochlorogenic acid B, isochlorogenic acid B] | slow eliminate rate | increased |  | 455 ± 14.6 |  | 52300 ± 3010 | 0.33 | 16.8 ± 5.09 | 15.2 ± 0.19 | 201 ± 7.21 | 194 ± 6.58 | 0.33 |  | 10.9 ± 1.04 |  | 25200 ± 1590 | t 1/2 ([2]; oral R-FF extract 140 g/kg): 9.68 ± 1.36 h
COc1cc(/C=C/C(=O)O)ccc1O [Ferulic acid, ferulic acid] | fast eliminate rate |  | obvious double peak phenomena | 2.25 ± 0.442 | 1.76 ± 0.224 | 380 ± 5.89 | 0.33 | 3.31 ± 0.68 | 3.33 ± 0.11 | 2.14 ± 0.196 | 0.853 ± 0.0294 | 0.33 | 5.07 ± 1.87 | 4.21 ± 0.11 |  | 253 ± 25.7 | 
C[C@@H]1O[C@@H](OC[C@H]2O[C@@H](Oc3c(-c4ccc(O)c(O)c4)oc4cc(O)cc(O)c4c3=O)[C@H](O)[C@@H](O)[C@@H]2O)[C@H](O)[C@H](O)[C@H]1O [Rutin, rutin] | slow eliminate rate | increased | obvious double peak phenomena | 105 ± 9.98 | 64.6 ± 4.91 | 7040 ± 429 | 0.39 ± 0.09 | 14.3 ± 2.28 | 22.7 ± 0.82 | 211 ± 37.9 | 100 ± 9.13 | 0.33 | 30.7 ± 14 | 18.91 ± 0.17 |  | 7430 ± 446 | 
O=C(O)/C=C/c1ccc(O)c(O)c1 [Caffeic acid, caffeic acid] | slow eliminate rate |  | obvious double peak phenomena | 66.8 ± 12.2 | 24.1 ± 2.06 | 4550 ± 235 | 0.33 | 78.9 ± 26 | 12.7 ± 0.38 | 35.2 ± 9.99 | 20.2 ± 0.405 | 0.33 | 32.3 ± 17.6 | 14.3 ± 0.25 |  | 4470 ± 311 | 
